Assay: Renal medullary blood perfusion (laser Doppler) in hemorrhaged rats
Format: in vivo, rat
Procedure: Determination of cardiovascular response. The animals were anesthetized with urethane dissolved in isotonic saline. Urethane was administered in a dose of 1.5 g per kg body weight via intraperitoneal injection. Urethane was selected as an anesthetic agent, because it produces long lasting (8-10 hours) anesthesia with minimal cardiovascular and respiratory system depression. It produces a level of surgical anesthesia characterized by preservation of cardiovascular reflexes (Maggi and Meli 1986). Briefly, anaesthetized rats were immobilized on a surgical board equipped with controlled heating pad. […] MAP and HR were measured by cannulating the left femoral artery with pressure catheter SPR-320 (Millar Instruments), connected to the ML221 bridge amplifier (AD Instruments) through AEC-10C connector and the signals were acquired (1000 S^−1) using PowerLab 16/30 data acquisition system (Gulati et al. 2012; Pacher et al. 2008). […]
Induction of Hemorrhagic Shock. […] Measured hematocrit levels were similar in various groups. […]
Experimental design. […] Additional experiments were also carried out where the amount of norepinephrine (a very commonly used vasopressor during resuscitation) required to maintain MAP at 70 mmHg in normal saline (NS) or centhaquin (0.01 mg/kg) treated rats (volume equal to blood loss) was determined. […]

Cc1cccc(N2CCN(CCc3ccc4ccccc4n3)CC2)c1 [centhaquin, 2-[2-(4-(3-methyphenyl)-1-piperazinyl)]ethyl-quinoline]
renal blood perfusion compared to equal volume of saline (hemorrhaged female rats): significantly improved
renal blood perfusion compared to equal volume of saline (hemorrhaged male rats, low doses of centhaquin): significantly improved
